In patent EP4582094A1, “ISCHEMIA-REPERFUSION INJURY INHIBITOR” (Tohoku University, priority 2022, dated 2024):

Experiments:
HeLa cells = test: Mitochondrial membrane potential, JC-10 staining; assay type: cell-based; conditions: GSSSG added to medium at 1 µM, 10 µM and 100 µM; 24 hours; even at a low concentration; FIG. 3
Experimental: HeLa cells were cultured in DMEM (low glucose) medium containing 10% FBS, and GSSSG was added to the medium at different concentrations (1 µM, 10 µM and 100 µM). The cells were stained with JC-10, which is a reagent for detecting mitochondrial membrane potential, after 24 hours and observed with a confocal microscope, and the fluorescent intensities were measured with a plate reader.

IL6 = test: RT-PCR gene expression of inflammatory cytokines in lung tissue after IRI; assay type: in vivo, C57BL/6J mice; conditions: lung tissue after the IRI; GSSSG administration group vs control; FIG. 2
Experimental: (§1) An intervention group (N = 4) in which 500 µL of the GSSSG solution was intraperitoneally administered to C57BL/6J mice (22 months old, male) an hour before pulmonary hilum clamping surgery and a control group (N = 4) in which 500 µL of normal saline solution (NSS) was intraperitoneally administered were set. The pulmonary hilum structure was clamped together for 60 minutes, and the IRI was evaluated an hour and a day after releasing clamping.
(§2) The inflammation due to the IRI was evaluated with gene expression of inflammatory cytokines in lung tissue. The wet to dry weight ratios were evaluated with N = 4 in each group, and the other items were evaluated with N = 5-6 in each group.

TNFα = test: as above; assay type: in vivo, C57BL/6J mice; conditions: lung tissue after the IRI; GSSSG administration group vs control; FIG. 2
Experimental: as §1, §2

IL1b = test: as above; assay type: in vivo, C57BL/6J mice; conditions: lung tissue after the IRI; GSSSG administration group vs control; FIG. 2
Experimental: as §1, §2

IL10 = test: as above; assay type: in vivo, C57BL/6J mice; conditions: lung tissue after the IRI; GSSSG administration group vs control; FIG. 2
Experimental: as §1, §2

[1] = Rat isogeneic lung transplantation: ischemia-reperfusion injury after lung preservation; assay type: in vivo, Lewis rats; conditions: lung preservation solution containing 300 µM GSSSG, six hours at 4°C, an hour after the reperfusion, vs control group
Experimental: In the GSSSG group (n=3), ET-TU solution containing GSSSG was used as the lung preservation solution. The GSSSG concentration was 300 µM, at which GSSSG could be mixed into EP-TU while maintaining pH 7 in a preliminary experiment. In the control group (n=3), ET-TU solution was used as it was as the lung preservation solution. As the rats, Lewis rats (male, 13-18 weeks, 275-350 g) were used both as the donors and the recipients.
The left lung of a donor was preserved for six hours at 4°C using the lung preservation solution (EP-TU) and transplanted into the left lung of a recipient rat. After reperfusion for an hour after the lung transplantation, the right pulmonary hilum (pulmonary artery and vein/bronchus) was blocked, and the degree of ischemia-reperfusion injury of the left lung was evaluated. As indicators for ischemia-reperfusion injury, the weight gain of the grafted lung (weight after transplantation - weight before transplantation) and the arterial oxygen tension (PaO2) after blocking the right pulmonary hilum were used.

[2] = Mouse lung ischemia-reperfusion injury (pulmonary hilum clamping): physiological and histopathological evaluation of pulmonary edema; assay type: in vivo, C57BL/6J mice
Experimental: GSSSG (MW 644) was dissolved in 0.1 M HCl to 25 mM GSSSG. Next, 20 µL of 25 mM GSSSG was added to 50 µL of 10x PBS and 430 µL of DW, and thus 500 µL of GSSSG solution (1 mM, 322 µg GSSSG) was adjusted in the end.
as §1
The wet to dry weight ratios were measured as physiological evaluation of pulmonary edema due to the IRI (N = 4 in each group).
The alveolar edema was scored, and the edema around the pulmonary arteries was quantified as histopathological evaluation of pulmonary edema due to the IRI (N = 6 in each group). The scoring was conducted according to the criteria below, and an average of 10 fields was calculated for each mouse. Regarding the edema around the pulmonary arteries, three to five pulmonary arteries per mouse were extracted, and an average of the area ratios of the pulmonary artery and the edema around the artery was calculated.
• 0 = no finding • 1 = finding in 1-25% • 2 = finding in 26-50% • 3 = finding in 51-75% • 4 = finding in 76-100%

Which results are given for `N[C@@H](CCC(=O)N[C@@H](CSSSC[C@H](NC(=O)CC[C@H](N)C(=O)O)C(=O)NCC(=O)O)C(=O)NCC(=O)O)C(=O)O` [GSSSG, glutathione trisulfide]?
mitochondrial membrane potential (HeLa cells): increased with a significance; gene expression of IL6 (IL6): decreased with a significance; gene expression of TNFα (TNFα): no difference was observed; gene expression of IL1b (IL1b): no difference was observed; gene expression of IL10 (IL10): decreased with a significance; arterial oxygen tension (PaO2) after blocking the right pulmonary hilum ([1]; FIG. 10A): improved; weight gain of the grafted lung ([1]; FIG. 10B): decreased; edema around the pulmonary arteries ([2]; 500 µL GSSSG solution (1 mM) intraperitoneally an hour before clamping, area ratio of pulmonary artery and edema around it, vs control group, FIG. 1c): relief of pulmonary edema was observed; score of alveolar edema ([2]; 500 µL GSSSG solution (1 mM) intraperitoneally an hour before clamping, histopathological evaluation, vs control group, FIG. 1b): relief of pulmonary edema was observed; wet to dry weight ratio ([2]; 500 µL GSSSG solution (1 mM, 322 µg) intraperitoneally an hour before 60 min pulmonary hilum clamping, 22 months old male mice, an hour and a day after the IRI, vs control group (NSS), FIG. 1a): decreased with a significance
